Data taken from patent US4954518A, “4H-1-benzopyran-4-one derivative or its salt, process for producing the same and pharmaceutical composition comprising the same as active ingredient” (Toyama Chemical Company, Ltd., priority 1987, dated 1990).

Tested on: not listed separately
Experiment: Ulcerogenic effect in rats
Parameters: species or system male rats of Wister strain
Conditions: rat, in vivo, po
Protocol: To male rats of Wister strain (body weight: 180-230 g, 7 to 8 rats per group) which had been fasted for 24 hours with free access to water was orally administered a test compound suspended in 0.5% (w/v) aqueous carboxymethylcellulose solution in a proportion of 1 ml/100 g of body weight. The rats were allowed to stand under abstinence from food and water for 24 hours, and thereafter, sacrificed by dislocation of cervical vertebrae, after which the stomach was removed and fixed in 1% (v/v) formaline solution for 30 minutes. This stomach was split along the greater curvature and the length (mm) of the erosion and ulcer formed on the gastric mucosa was measured by a stereomicroscope, and the total sum of the lengths (lmm) was determined, from which ulcerogenic index was assessed based on the following arbitrary scale:
Subsequently, UD50 (mg/kg) which is the dose of the test compound which induces ulcerogenic index 5 was determined on each test compound.
*Rats were allowed to stand for 5 hours under abstinence from food and […]

Compound | TD50 at 24 h [mg/kg] | TD50 at 5 h [mg/kg]
Cc1ccccc1Oc1cc2c(=O)c(NC=O)coc2cc1NS(C)(=O)=O [Compound 46] | > 500 | –
CS(=O)(=O)Nc1cc2occ(NC=O)c(=O)c2cc1Oc1ccccc1F [Compound 34] | > 500 | –
CS(=O)(=O)Nc1cc2occ(NC=O)c(=O)c2cc1Oc1ccc(F)cc1F [Compound 39] | > 500 | –
CS(=O)(=O)Nc1cc2occc(=O)c2cc1Oc1ccccc1 [Compound 1, 7-methylsulfonylamino-6-phenoxy4H-1-benzopyran-4-one] | – | > 300
CS(=O)(=O)Nc1cc2occ(NC=O)c(=O)c2cc1Oc1ccccc1 [Compound 99] | > 500 | –
CS(=O)(=O)Nc1cc2occc(=O)c2cc1Oc1ccc(F)cc1F [Compound 94, 6-(2,4-difluorophenoxy)-7-methylsulfonylamino-4H-1-benzopyran-4-one] | – | > 300

Same assay, conditions: rat, in vivo; oral; 24 hours under abstinence from food and water; read-out: UD50 (dose which induces ulcerogenic index 5)

Compound | TD50 at 24 h [mg/kg]
COc1ccc2c(c1)c(CC(=O)O)c(C)n2C(=O)c1ccc(Cl)cc1 [IM, indomethacin, reference compound] | 4.3

Tested on: Carrageenin-Induced Paw Edema
Experiment: Carrageenin-induced paw edema in rats (inhibitory activity)
Type: in vivo, male rats of Donryu strain
Conditions: Rattus norvegicus, po, 3 h, read-out: Inhibitory effect (carrageenin-induced paw edema)
Protocol: (1) Carrageenin-induced paw edema
This inhibitory activity was tested according to the method of C. A. Winter et al. [Proceedings of the Society for Experimental Biology and Medicine, vol.
After one hour, 0.1 ml of a 1% carrageenin was injected into the subplantar region of the left hind paw. Three hours after carrageenin injection, the paw volume was measured plethysmographically and the percent swelling was determined from the volume before injection and the inhibitory percentage was calculated according to the following equation: [formula]

Compound | inhibition in vivo at 10 mg/kg [%]
COc1ccc2c(c1)c(CC(=O)O)c(C)n2C(=O)c1ccc(Cl)cc1 [IM, indomethacin, reference compound] | > 40

Same assay, conditions: Rattus norvegicus; 10 mg/kg oral, 1 h before carrageenin; paw volume 3 h after; read-out: Inhibitory effect (carrageenin-induced paw edema)

Compound | inhibition in vivo at 10 mg/kg [%]
Cc1ccccc1Oc1cc2c(=O)c(NC=O)coc2cc1NS(C)(=O)=O [Compound 46] | > 40
Cc1cc(=O)c2cc(Oc3ccccc3)c(NS(C)(=O)=O)cc2o1 [Compound 9] | 20 to 30
CS(=O)(=O)Nc1cc2occ(NC=O)c(=O)c2cc1Oc1ccccc1F [Compound 34] | > 40
CS(=O)(=O)Nc1cc2occ(C(N)=O)c(=O)c2cc1Oc1ccccc1 [Compound 122] | 20 to 30
CN(C=O)c1coc2cc(NS(C)(=O)=O)c(Oc3ccccc3)cc2c1=O [Compound 100] | > 40
CSc1coc2cc(NS(C)(=O)=O)c(Oc3ccccc3)cc2c1=O [Compound 4, 7-methylsulfonylamino-3-methylthio-6-phenoxy-4H-1-benzopyran-4-one] | 20 to 30
CS(=O)(=O)Nc1cc2occ(NC=O)c(=O)c2cc1Oc1ccc(F)cc1F [Compound 39] | > 40
CS(=O)(=O)Nc1cc2occc(=O)c2cc1Oc1ccccc1 [Compound 1, 7-methylsulfonylamino-6-phenoxy4H-1-benzopyran-4-one] | 30 to 40
CS(=O)(=O)Nc1cc2occ(NC=O)c(=O)c2cc1Oc1ccccc1 [Compound 99] | > 40
CNc1coc2cc(NS(C)(=O)=O)c(Oc3ccccc3)cc2c1=O [Compound 101] | 30 to 40
O=CNc1coc2cc(NS(=O)(=O)CCl)c(Oc3ccccc3)cc2c1=O [Compound 40] | > 40
Cc1oc2cc(NS(C)(=O)=O)c(Oc3ccccc3)cc2c(=O)c1C(N)=O [Compound 61] | 15 to 20
CC(=O)N(c1cc2occc(=O)c2cc1Oc1ccccc1)S(C)(=O)=O [Compound 96] | 30 to 40
CS(=O)(=O)Nc1cc2occc(=O)c2cc1Oc1ccc(F)cc1F [Compound 94, 6-(2,4-difluorophenoxy)-7-methylsulfonylamino-4H-1-benzopyran-4-one] | 30 to 40
CS(=O)(=O)Nc1cc2occ(NC=O)c(=O)c2cc1Sc1ccccc1 [Compound 88] | 30 to 40
CS(=O)(=O)Nc1cc2occc(=O)c2cc1Nc1ccccc1 [Compound 12] | 30 to 40

Tested on: not listed separately
Experiment: Oral acute toxicity in mice
Type: in vivo, ICR strain male mice
Conditions: mouse, in vivo; oral, mice
Protocol: (§1) ICR strain male mice (body weight: 20-25 g, […], 3 mice per group) were tested for oral acute toxicity. A test compound suspended in 0.5% (w/v) aqueous carboxymethylcellulose solution was orally administered to the mice in a proportion of 0.2 ml/10 g of body weight. After the administration, general symptom was observed over one week.

Compound | LD50 at 168 h [mg/kg]
COc1ccc2c(c1)c(CC(=O)O)c(C)n2C(=O)c1ccc(Cl)cc1 [IM, indomethacin, reference compound] | 25

Tested on: mice
Experiment: Oral acute toxicity in mice
Type: in vivo, ICR strain male mice
Conditions: mouse, in vivo, po, 500 mg/kg
Protocol: as §1

Compound | behavioural changes
Cc1ccccc1Oc1cc2c(=O)c(NC=O)coc2cc1NS(C)(=O)=O [Compound 46] | no behavioural changes were observed
CS(=O)(=O)Nc1cc2occ(NC=O)c(=O)c2cc1Oc1ccccc1F [Compound 34] | no behavioural changes were observed
CS(=O)(=O)Nc1cc2occ(NC=O)c(=O)c2cc1Oc1ccc(F)cc1F [Compound 39] | no behavioural changes were observed
CS(=O)(=O)Nc1cc2occc(=O)c2cc1Oc1ccccc1 [Compound 1, 7-methylsulfonylamino-6-phenoxy4H-1-benzopyran-4-one] | no behavioural changes were observed
CS(=O)(=O)Nc1cc2occ(NC=O)c(=O)c2cc1Oc1ccccc1 [Compound 99] | no behavioural changes were observed
CS(=O)(=O)Nc1cc2occc(=O)c2cc1Oc1ccc(F)cc1F [Compound 94, 6-(2,4-difluorophenoxy)-7-methylsulfonylamino-4H-1-benzopyran-4-one] | no behavioural changes were observed

Same assay, conditions: oral, dose of 500 mg/kg, observed over one week

Compound | death cases
Cc1ccccc1Oc1cc2c(=O)c(NC=O)coc2cc1NS(C)(=O)=O [Compound 46] | no death case was found
CS(=O)(=O)Nc1cc2occ(NC=O)c(=O)c2cc1Oc1ccccc1F [Compound 34] | no death case was found
CS(=O)(=O)Nc1cc2occ(NC=O)c(=O)c2cc1Oc1ccc(F)cc1F [Compound 39] | no death case was found
CS(=O)(=O)Nc1cc2occc(=O)c2cc1Oc1ccccc1 [Compound 1, 7-methylsulfonylamino-6-phenoxy4H-1-benzopyran-4-one] | no death case was found
CS(=O)(=O)Nc1cc2occ(NC=O)c(=O)c2cc1Oc1ccccc1 [Compound 99] | no death case was found
CS(=O)(=O)Nc1cc2occc(=O)c2cc1Oc1ccc(F)cc1F [Compound 94, 6-(2,4-difluorophenoxy)-7-methylsulfonylamino-4H-1-benzopyran-4-one] | no death case was found

Tested on: Adjuvant Arthritis
Experiment: Adjuvant-induced arthritis in rats (inhibitory activity)
Type: in vivo, male rats of Westar-Lewis strain
Conditions: 1 mg/kg oral once a day, seven continuous days
Protocol: (2) Adjuvant-induced arthritis
This inhibitory activity was tested according to the method of E. M. Glenn [American Journal of Veterinary Research, vol. 27, p. 339 (1966)].
To male rats of Westar-Lewis strain (body weight: 190-230 g, 5 rats per group) was intradermally injected 0.1 ml of a suspension of heat-killed Mycobacterium tuberculosis in liquid paraffin at a concentration of 6 mg/ml as the adjuvant into the root of tail. Eighteen days after the adjuvant injection, the rats were classified based on the volume of both hind paws, and then a suspension of the test compound in 0.5% (w/v) aqueous carboxymethylcellulose solution was orally administered to the classified rats in a proportion of 1 ml/100 g of body weight once a day for seven continuous days (see Table 3) or four continuous days (see Table 4). On the day following the last administration, the volume of both hind paws was measured, and in the same manner as in (1) above, the inhibitory effect was determined. Incidentally, the result is shown in Tables 3 and 4 in terms of the inhibitory effect indicated below based on inhibition (x%).

Compound | Inhibitory effect (adjuvant arthritis, Table 3)
COc1ccc2c(c1)c(CC(=O)O)c(C)n2C(=O)c1ccc(Cl)cc1 [IM, indomethacin, reference compound] | +++ (30 ≤ × < 40)

Same assay, conditions: 10 mg/kg oral once a day, seven continuous days

Compound | Inhibitory effect (adjuvant arthritis, Table 3)
Cc1cc(=O)c2cc(Oc3ccccc3)c(NS(C)(=O)=O)cc2o1 [Compound 9] | ++++ (× ≥ 40)
CS(=O)(=O)Nc1cc2occc(=O)c2cc1Oc1ccccc1 [Compound 1, 7-methylsulfonylamino-6-phenoxy4H-1-benzopyran-4-one] | +++ (30 ≤ × < 40)
CC(=O)N(c1cc2occc(=O)c2cc1Oc1ccccc1)S(C)(=O)=O [Compound 96] | ++++ (× ≥ 40)
CS(=O)(=O)Nc1cc2occc(=O)c2cc1Oc1ccc(F)cc1F [Compound 94, 6-(2,4-difluorophenoxy)-7-methylsulfonylamino-4H-1-benzopyran-4-one] | ++++ (× ≥ 40)

Same assay, conditions: Rattus norvegicus, po, read-out: Inhibitory effect (adjuvant arthritis, Table 4)

Compound | inhibition in vivo at 3 mg/kg [%]
COc1ccc2c(c1)c(CC(=O)O)c(C)n2C(=O)c1ccc(Cl)cc1 [IM, indomethacin, reference compound] | 30 to 40

Same assay, conditions: Rattus norvegicus; 3 mg/kg oral once a day, four continuous days; read-out: Inhibitory effect (adjuvant arthritis, Table 4)

Compound | inhibition in vivo at 3 mg/kg [%]
Cc1ccccc1Oc1cc2c(=O)c(NC=O)coc2cc1NS(C)(=O)=O [Compound 46] | 20 to 30
CS(=O)(=O)Nc1cc2occ(NC=O)c(=O)c2cc1Oc1ccccc1F [Compound 34] | 30 to 40
CS(=O)(=O)Nc1cc2occ(C(N)=O)c(=O)c2cc1Oc1ccccc1 [Compound 122] | 20 to 30
CSc1coc2cc(NS(C)(=O)=O)c(Oc3ccccc3)cc2c1=O [Compound 4, 7-methylsulfonylamino-3-methylthio-6-phenoxy-4H-1-benzopyran-4-one] | 20 to 30
CS(=O)(=O)Nc1cc2occ(NC=O)c(=O)c2cc1Oc1ccc(F)cc1F [Compound 39] | 20 to 30
CS(=O)(=O)Nc1cc2occ(NC=O)c(=O)c2cc1Oc1ccccc1 [Compound 99] | 20 to 30
O=CNc1coc2cc(NS(=O)(=O)CCl)c(Oc3ccccc3)cc2c1=O [Compound 40] | 20 to 30
CS(=O)(=O)Nc1cc2occc(=O)c2cc1Nc1ccccc1 [Compound 12] | 30 to 40

Same assay, conditions: Rattus norvegicus; 10 mg/kg oral once a day, four continuous days; read-out: Inhibitory effect (adjuvant arthritis, Table 4)

Compound | inhibition in vivo at 10 mg/kg [%]
CN(C=O)c1coc2cc(NS(C)(=O)=O)c(Oc3ccccc3)cc2c1=O [Compound 100] | 20 to 30
CNc1coc2cc(NS(C)(=O)=O)c(Oc3ccccc3)cc2c1=O [Compound 101] | 20 to 30
Cc1oc2cc(NS(C)(=O)=O)c(Oc3ccccc3)cc2c(=O)c1C(N)=O [Compound 61] | 30 to 40
CS(=O)(=O)Nc1cc2occ(NC=O)c(=O)c2cc1Sc1ccccc1 [Compound 88] | 20 to 30
